This is an account of results in patent US20140193843A1 (Institut Pasteur, priority 2008, published 2014).

The subject of assay [1] is anti-YQRFSR antibody 3RBF-SAB. The experiment in a line: Competitive ELISA immuno-assay for Opiorphin. The assay is classed as binding, rabbit. Particulars: at 500 ng/ml final concentration. (In general: In an ELISA, binding on a coated surface is turned into a signal by an enzyme label.)
Source text: Y represents the antibody directed against Sialorphin.
The peptide was coated on the plastic support of the micro-titration plate (96-well-ImmunoPlate, Nunc).
Inter-assay variability was less than 10%.
The test system of the next assay is acute mechanical pain. Particulars: rat, pin-pain test, compared with morphine; cited from earlier work.

No end group written: not given here.

Turning to “QHNPR (Sialorphin; UniProt P13432 29-33, looked up)”, in assay [1], the “recognition by the antibody (specificity of the immuno-assay)” value is given as “not recognized”.
For QRFSR [Opiorphin, QRFSR], the pain-suppressive potency result in the assay on acute mechanical pain is reported as “as effective as morphine”.
